According to US20250064781A1, “METHODS OF TREATING, AMELIORATING, AND/OR PREVENTING STRESS-RELATED DISORDER” (Yale University, priority 2021, published 2025):
Entries after “also recorded” stand apart in the source; their conditions may differ. Structures can show the parent of a compound that is named as a salt. Where two headings read alike, the source gives them in different places.

How the values were obtained:
[1] = target: T1, α1A-adrenergic receptor subtype (α1A-AR) (Homo sapiens, UniProt P35348); settings: Kenny et al., cited from earlier work; for pKi for α1A-AR: cloned human receptor, Br J Pharmacol. 1996; for α1-adrenoceptor subtype preference (in words): as previously reported
T1 sequence (P35348 1-466): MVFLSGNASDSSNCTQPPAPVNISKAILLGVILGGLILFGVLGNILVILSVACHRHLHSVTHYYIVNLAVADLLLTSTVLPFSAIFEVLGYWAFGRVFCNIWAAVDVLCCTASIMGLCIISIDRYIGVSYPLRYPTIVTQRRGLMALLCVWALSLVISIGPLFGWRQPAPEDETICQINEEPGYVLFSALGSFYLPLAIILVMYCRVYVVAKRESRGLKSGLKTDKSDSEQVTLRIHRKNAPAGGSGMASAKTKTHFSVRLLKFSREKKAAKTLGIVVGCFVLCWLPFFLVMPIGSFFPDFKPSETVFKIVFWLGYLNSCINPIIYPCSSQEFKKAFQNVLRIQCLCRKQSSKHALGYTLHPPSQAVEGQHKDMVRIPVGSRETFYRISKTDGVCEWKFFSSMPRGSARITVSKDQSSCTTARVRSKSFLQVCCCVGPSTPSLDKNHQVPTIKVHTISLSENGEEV

[2] = target: T2, α1D-adrenergic receptor subtype (α1D-AR) (Homo sapiens, UniProt P25100); settings: cited from earlier work
T2 sequence (P25100 1-572): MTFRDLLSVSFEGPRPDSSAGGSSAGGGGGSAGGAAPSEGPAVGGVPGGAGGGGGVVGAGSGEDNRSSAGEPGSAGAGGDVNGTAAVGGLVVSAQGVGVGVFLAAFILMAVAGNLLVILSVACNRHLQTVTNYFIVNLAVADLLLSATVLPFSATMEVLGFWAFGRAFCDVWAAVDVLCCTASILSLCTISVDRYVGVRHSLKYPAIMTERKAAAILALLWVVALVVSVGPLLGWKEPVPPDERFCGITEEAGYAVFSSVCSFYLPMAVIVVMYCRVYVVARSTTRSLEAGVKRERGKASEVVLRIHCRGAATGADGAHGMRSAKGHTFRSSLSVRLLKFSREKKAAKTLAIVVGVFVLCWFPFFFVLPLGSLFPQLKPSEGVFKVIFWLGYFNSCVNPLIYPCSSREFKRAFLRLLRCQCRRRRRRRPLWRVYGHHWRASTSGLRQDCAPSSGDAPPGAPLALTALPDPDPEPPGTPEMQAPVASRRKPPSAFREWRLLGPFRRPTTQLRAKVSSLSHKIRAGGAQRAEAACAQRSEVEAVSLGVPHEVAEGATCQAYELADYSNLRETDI

[3] = test system: rhesus monkeys performing a spatial working memory task; experiment: spatial working memory task (oculomotor delayed response, ODR) in monkeys exposed to stress; assay type: in vivo, Rhesus monkeys (Macaca mulatta); settings: for performance (percent correct) in spatial working memory task under stress / performance in spatial working memory task under stress: versus VEH+STRESS; for effect on stress-induced prefrontal deficits: rhesus monkeys, dose not stated; for performance in spatial working memory task under stress: FIGS. 3 and 4, 0.1 mg/kg pretreatment before the stressor
Procedure: Rhesus monkeys (Macaca mulatta) exposed to stress or vehicle and administered with RS17053 (“RS17”) or vehicle (“VEH”) (FIG. 1) or administered with silodosin (“SIL”) or vehicle (“VEH”) were subjected to the oculomotor delayed response (ODR) tasks similar to those as described previously (Datta et al., J Neurosci. 2019 Apr. 3;39(14):2722-2734, the entirety of the journal article is hereby incorporated herein by reference). Specifically, the experiments were performed as the follows:
The monkeys were seated in primate chairs with their heads fixed and faced a 27-inch computer monitor 30 inches in front of them. The monkeys' eye positions were monitored with the ISCAN Eye Movement Monitoring System. The monkeys were pretrained on the visuospatial ODRtask, which required the subject to make a memory-guided saccade to a remembered visuospatial target. The ODR task was generated by the PICTO system (custom-designed, Windows-based data acquisition software). A central small white circle was illuminated on the computer monitor, which served as the fixation target. To initiate a trial, the animal fixated this central target and maintained fixation for 0.5 s (fixation period), whereupon a cue (the same sized white circle) was illuminated for a period of 0.5 s (cue period) at 1 of 8 peripheral targets located at an eccentricity of 13° with respect to the fixation spot. After the cue was extinguished, a 2.5 s delay period followed. The subject was required to maintain central fixation throughout both the cue presentation and the delay period. At the end of the delay, the fixation spot was extinguished, which instructed the monkey to make a memory-guided saccade to the location where the cue had been shown before the delay period. A trial was considered successful if the subject's response was completed within 0.5 s of the offset of the fixation spot and was within 2° around the correct cue location. The subject was rewarded with fruit juice immediately after every successful response. The position of the stimulus was randomized over trials such that it had to be remembered on a triα1-by-trial basis. The intertrial intervals (ITIs) were at least 3 s. The subject performed 1000-1500 trials per session.

[4] = target: T3, α1B-adrenergic receptor subtype (α1B-AR) (Homo sapiens, UniProt P35368); settings: cited from earlier work
T3 sequence (P35368 1-520): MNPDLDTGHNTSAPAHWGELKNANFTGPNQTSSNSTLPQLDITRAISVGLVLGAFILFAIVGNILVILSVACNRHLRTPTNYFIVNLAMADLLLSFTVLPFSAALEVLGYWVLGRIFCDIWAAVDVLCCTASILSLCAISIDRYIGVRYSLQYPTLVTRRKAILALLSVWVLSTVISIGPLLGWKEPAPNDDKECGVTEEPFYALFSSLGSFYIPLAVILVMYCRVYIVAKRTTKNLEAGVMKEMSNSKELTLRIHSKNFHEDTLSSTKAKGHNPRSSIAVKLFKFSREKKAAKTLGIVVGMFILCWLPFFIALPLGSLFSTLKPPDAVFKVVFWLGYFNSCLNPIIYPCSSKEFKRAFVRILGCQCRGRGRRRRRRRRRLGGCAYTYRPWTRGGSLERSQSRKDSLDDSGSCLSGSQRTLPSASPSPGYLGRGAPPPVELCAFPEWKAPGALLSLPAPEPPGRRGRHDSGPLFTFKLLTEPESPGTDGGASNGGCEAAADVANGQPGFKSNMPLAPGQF

[5] = target: T1, α1A-adrenergic receptor subtype (α1A-AR); settings: concluded from the Kenny et al. pKi values
[6] = cloned human receptor, Kenny et al., Br J Pharmacol. 1996
[7] = Williams et al. Br J Pharmacol. 1999
[8] = CHMP assessment report for Silodyx

Question: Which “pKi for α1A-AR” value [1] does the source give for “1-(4-amino-6,7-dimethoxy-2-quinazolinyl)-4-[[2-methoxy-6-(1-methylethyl)phenoxy]acetyl]piperazine [Rec 15/2739]” here?
Answer: Its value is 9.0±0.07.

Question: And the “pKi for α1D-AR” value [2, 6]?
Answer: The value was 8.6±0.07.

Question: With `CC(C)(Cc1c[nH]c2ccc(Cl)cc12)NCCOc1ccccc1OCC1CC1` [RS17053, N-[2-(2-cyclopropylmethoxyphenoxy)ethyl]-5-chloro-α,α-dimethyl-1H-indole-3-ethanamine] as the molecule, how does the “performance (percent correct) in spatial working memory task under stress” value ([3]; FIG. 1, pretreatment 0.1 mg/kg-1 mg/kg before the stressor) read?
Answer: The value was “protected from stress exposure”.

Question: And the “performance (percent correct) in spatial working memory task under stress” value ([3]; FIG. 2, low dose 0.01 mg/kg pretreatment before the stressor)?
Answer: The value was “blocked the stress-induced prefrontal deficits; also recorded: protected from stress exposure”.

Question: And the “effect on spatial working memory performance without stress” value ([3]; monkeys not subjected to stress, VEH+VEH vs. RS17+VEH)?
Answer: Its value is “no significant effect”.

Question: What about the “effect on stress-induced prefrontal deficits” value [3] of the same molecule?
Answer: The value was “completely blocked the stress-induced prefrontal deficits”.

Question: And the “α1-adrenoceptor subtype preference (in words)” value [1]?
Answer: Its value is “strong preference for α1A-AR”.

Question: And the “pKi for α1A-AR” value [1]?
Answer: The value was 8.6±0.09.

Question: What about the “pKi for α1B-AR” value [4, 6] of the same molecule?
Answer: Its value is 7.3±0.09.

Question: What about the “pKi for α1D-AR” value [2, 6] of the same molecule?
Answer: The value was 7.1±0.09.

Question: Which results are given for `Cc1c[nH]c(=O)n(CCCN2CCN(c3ccccc3OCC(F)(F)F)CC2)c1=O` [RS 100329 hydrochloride, 5-Methyl-3-[3-[3-[4-[2-(2,2,2,-trifluroethoxy)phenyl]-1-piperazinyl]propyl]-2,4-(1H,3H)-pyrimidinedione hydrochloride]?
Answer: selectivity for α1A-AR over α1B-AR [4, 7]: 126 fold; selectivity for α1A-AR over α1D-AR [2, 7]: 50 fold

Question: Which “α1-adrenoceptor subtype preference (in words)” value [5] does the source give for `COc1cc2nc(N3CCN(C(=O)C4COc5ccccc5O4)CC3)nc(N)c2cc1OC` (centres unmarked) [doxazosin] here?
Answer: The value was “has a preference for the α1B subtype, rather than the α1A subtype”.

Question: With `C[C@H](Cc1cc2c(c(C(N)=O)c1)N(CCCO)CC2)NCCOc1ccccc1OCC(F)(F)F` [silodosin] as the molecule, how does the “performance in spatial working memory task under stress” value [3] read?
Answer: Its value is “protected from stress exposure”.

Question: What about the “effect on stress-induced prefrontal deficits” value [3] of the same molecule?
Answer: The value was “completely blocked the stress-induced prefrontal deficits”.

Question: And the “pKi for α1B-AR” value [4, 8]?
Answer: Its value is 8.19.

Question: What about the “pKi for α1D-AR” value [2, 8] of the same molecule?
Answer: The value was 8.66.

Question: Which “performance in spatial working memory task under stress” value [3] does the source give for `CCOc1ccccc1OCCNC(C)Cc1ccc(OC)c(S(N)(=O)=O)c1` (centres unmarked) [tamsulosin, 5-(2-{[2-(2-Ethoxyphenoxy)ethyl]amino}propyl)-2-methoxybenzene-1-sulfonamide] here?
Answer: Its value is “protected from stress exposure”.

Question: What about the “effect on stress-induced prefrontal deficits” value [3] of the same molecule?
Answer: The value was “effective for treating disorders consequent of stress”.

Question: What about the “effect on stress-induced prefrontal deficits” value ([3]; listed as tamulosin) of the same molecule?
Answer: The value was “completely blocked the stress-induced prefrontal deficits”.

Question: And the “α1-adrenoceptor subtype preference (in words)” value [1]?
Answer: The value was “preference for α1A-AR and α1D-AR over α1B-AR”.

Question: What about the “pKi for α1B-AR” value [4, 6] of the same molecule?
Answer: The value was 7.0±0.08.

Question: And the “pKi for α1D-AR” value [2, 6]?
Answer: The value was 8.1±0.04.
